Measured values from patent US5342839A, “2-hydroxy-3-phenoxy-propyl-substituted piperazines, their preparation and use” (BASF Aktiengesellschaft, priority 1988, dated 1994).

Legend:
[1] = Protection from acute cerebral hypoxia (survival time of mice in 3.5 parts O2/96.5 parts N2); format: in vivo; conditions: female mice, i.p., hypoxia 3.5 parts oxygen/96.5 parts nitrogen; for ED50: Mus musculus, ip, read-out: Test 1 ED 50% (dose which increases survival time of the animals by 50%), hypoxia
Experimental: 1. Protection from acute cerebral hypoxia
Female mice (weight 22-28 g) were placed in a glass tube (diameter 6 cm) through which was passed a mixture of 3.5 parts of oxygen and 96.5 parts of nitrogen. Untreated control animals survived 138 sec. on average in a glass tube of this type. The dose of active substances which, after intraperitoneal administration thereof, increases the survival time of the animals by 50% was determined.

calcium channel = target: T1, calcium channel (Cavia porcellus, UniProt A0A286X7I0); experiment: Affinity to the calcium channel: inhibition of specific (S)-3H-devapamil binding to guinea-pig skeletal muscle membranes; conditions: 1 nM (S)-3H-devapamil, pH 7.4, 20° C., 60 minutes, read-out: Test 3 Ki
T1 construct: guinea-pig skeletal muscle membranes; from tissue; host or cells: guinea-pig skeletal muscle membranes
Experimental: 3. Affinity of the test substances to the calcium channel.
The affinity of the test substances to the calcium channel was determined by inhibition of the specific (S)-^3 H-devapamil binding to guinea-pig skeletal muscle membranes (FEBS Lett. 176, 371 (1984)). For this, the membranes were incubated with a fixed concentration of 1 nM (S)-^3 H-devapamil and increasing concentrations of test substance in 50 mM tris-HCl/0.1 mM phenylmethylsulfonyl fluoride, (pH 7.4) at 20° C. for 60 minutes. The non-specific binding was determined using 10^-6 M (S)-devapamil. The mixtures were then filtered through glass fiber filters, and the amount of (S)-^3 H-devapamil retained on the filter was determined by liquid scintillation measurement. The Ki values were determined by non-linear regression analysis.

[2] = Protection from global cerebral ischemia (survival time of mice after MgCl2); format: in vivo; conditions: female mice, i.p., before 0.1 ml of 80% strength MgCl2.6H2O solution; for ED50: Mus musculus, ip, read-out: Test 2 ED 50% (dose which increases survival time of the animals by 50%), global ischemia
Experimental: 2. Protection from global cerebral ischemia
Female mice (weight 24-27 g) received the active substance intraperitoneally before administration of 0.1 ml of an 80% strength solution (g/l) of MgCl2.6H2 O. Untreated control animals survive 24 sec. on average after administration of MgCl2. The dose of active substances which increases the survival time of the animals by 50% compared with placebo-treated animals was determined.

T1 sequence (A0A286X7I0 1-1867): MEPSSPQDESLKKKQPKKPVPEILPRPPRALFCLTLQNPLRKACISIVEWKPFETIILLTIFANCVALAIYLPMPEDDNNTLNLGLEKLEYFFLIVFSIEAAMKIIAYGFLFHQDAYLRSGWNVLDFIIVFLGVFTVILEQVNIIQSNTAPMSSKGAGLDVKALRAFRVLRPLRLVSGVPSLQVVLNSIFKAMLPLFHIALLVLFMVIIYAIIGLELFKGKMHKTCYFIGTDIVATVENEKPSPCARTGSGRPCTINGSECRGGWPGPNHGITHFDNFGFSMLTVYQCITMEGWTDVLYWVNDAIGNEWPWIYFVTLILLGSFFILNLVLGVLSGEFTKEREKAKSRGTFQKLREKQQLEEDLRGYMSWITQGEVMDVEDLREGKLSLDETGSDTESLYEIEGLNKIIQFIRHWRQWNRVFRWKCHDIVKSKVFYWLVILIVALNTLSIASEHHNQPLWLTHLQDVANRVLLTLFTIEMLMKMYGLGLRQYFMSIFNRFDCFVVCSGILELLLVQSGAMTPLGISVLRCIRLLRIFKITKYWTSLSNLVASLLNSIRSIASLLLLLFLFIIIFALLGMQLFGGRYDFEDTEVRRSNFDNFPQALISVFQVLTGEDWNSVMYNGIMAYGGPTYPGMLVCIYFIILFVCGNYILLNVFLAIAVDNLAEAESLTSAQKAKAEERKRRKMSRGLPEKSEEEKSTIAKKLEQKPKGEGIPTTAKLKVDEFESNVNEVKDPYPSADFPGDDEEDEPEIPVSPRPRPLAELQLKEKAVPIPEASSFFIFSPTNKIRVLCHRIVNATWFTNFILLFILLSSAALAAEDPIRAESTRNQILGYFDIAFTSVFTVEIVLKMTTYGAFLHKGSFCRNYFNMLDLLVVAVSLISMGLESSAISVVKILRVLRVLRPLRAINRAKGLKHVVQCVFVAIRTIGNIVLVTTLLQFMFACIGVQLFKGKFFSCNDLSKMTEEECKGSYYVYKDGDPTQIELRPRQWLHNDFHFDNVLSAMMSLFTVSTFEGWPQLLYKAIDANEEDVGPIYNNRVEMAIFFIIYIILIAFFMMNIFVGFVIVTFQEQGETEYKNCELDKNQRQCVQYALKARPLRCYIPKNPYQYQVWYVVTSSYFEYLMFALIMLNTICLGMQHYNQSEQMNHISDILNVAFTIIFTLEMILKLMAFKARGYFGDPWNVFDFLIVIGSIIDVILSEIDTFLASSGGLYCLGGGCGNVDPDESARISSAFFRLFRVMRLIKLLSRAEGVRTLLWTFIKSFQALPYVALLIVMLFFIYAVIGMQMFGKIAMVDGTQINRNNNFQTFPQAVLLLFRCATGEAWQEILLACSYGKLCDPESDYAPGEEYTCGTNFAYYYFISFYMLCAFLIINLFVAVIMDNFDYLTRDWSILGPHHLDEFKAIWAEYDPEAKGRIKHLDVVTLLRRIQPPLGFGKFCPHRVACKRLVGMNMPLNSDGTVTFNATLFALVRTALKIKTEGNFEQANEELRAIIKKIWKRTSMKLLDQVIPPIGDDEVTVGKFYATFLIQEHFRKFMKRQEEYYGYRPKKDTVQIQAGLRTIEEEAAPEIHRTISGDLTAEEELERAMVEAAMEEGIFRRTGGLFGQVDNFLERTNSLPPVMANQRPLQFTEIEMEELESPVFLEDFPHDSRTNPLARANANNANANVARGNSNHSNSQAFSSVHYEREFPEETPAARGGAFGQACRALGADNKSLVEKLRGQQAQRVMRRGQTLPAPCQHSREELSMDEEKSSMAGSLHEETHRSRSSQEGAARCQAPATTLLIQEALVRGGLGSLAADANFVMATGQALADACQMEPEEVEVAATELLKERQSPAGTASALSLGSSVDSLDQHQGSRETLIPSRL

SMILES	Test 1 ED 50% (dose which increases survival time of the animals by 50%), hypoxia [1] [mg/kg]	Ki (calcium channel) [µM]	ED50 [2] [mg/kg]	Test 2 ED 50% (dose which increases survival time of the animals by 50%), global ischemia [2] [mg/kg]	ED50 [1] [mg/kg]
OC(COc1ccc(F)cc1)CN1CCN(CCCC(c2ccc(F)cc2)c2ccc(F)cc2)CC1 (single isomer, unassigned; (+)) [Example 30, (+)-1[4,4-bis(4-fluorophenyl)butyl]-4-[2-hydroxy-3(4-fluorophenoxy)propyl]piperazine]	4.0	0.01	17		
OC(COc1ccc(F)cc1)CN1CCN(CCC(c2ccccc2)c2ccccc2)CC1 (single isomer, unassigned; (+)) [Example 32]	4.2	0.249		9.5	
OC(COc1ccc(F)cc1)CN1CCN(CCCC(c2ccc(F)cc2)c2ccc(F)cc2)CC1 (single isomer, unassigned; (-)) [Example 29, (-)-1[4,4-bis(4-fluorophenyl)butyl]-4-[2-hydroxy-3(4-fluorophenoxy)propyl]piperazine]	1.6	0.009		13	
OC(COc1ccc(F)cc1)CN1CCN(CCC(c2ccccc2)c2ccccc2)CC1 (single isomer, unassigned; (-)) [Example 31]		0.149	9.3		4.1
OC(COc1ccc(Cl)cc1)CN1CCN(CCCC(c2ccc(F)cc2)c2ccc(F)cc2)CC1 (centres unmarked) [Example 1, 1-[4,4-bis(4-Fluorophenyl)butyl]-4-[2-hydroxy-3(4-chlorophenoxy)propyl]piperazine]		0.008	27		11
OC(COc1ccc(F)cc1)CN1CCN(CCCC(c2ccc(F)cc2)c2ccc(F)cc2)CC1 (centres unmarked) [Example 2, 1-[4,4-bis(4-fluorophenyl)butyl]-4-[2-hydroxy-3(4-fluorophenoxy)propyl]piperazine]		0.0091	20		11
OC(COc1ccccc1)CN1CCN(CCCC(c2ccc(F)cc2)c2ccc(F)cc2)CC1 (centres unmarked) [Example 3, 1-[4,4-bis(4-fluorophenyl)butyl]-4-[2-hydroxy-3-phenoxypropyl]piperazine]		0.008	13		10
OC(COc1ccccc1)CN1CCN(CCCC(c2ccccc2)c2ccccc2)CC1 (centres unmarked) [Example 4, 1-[4,4-diphenylbutyl]-4-[2-hydroxy-3-phenoxypropyl]-piperazine]		0.018	8.6		6.6
OC(COc1ccccc1)CN1CCN(CCC(c2ccccc2)c2ccccc2)CC1 (centres unmarked) [Example 7, 1-[3,3-diphenylpropyl]-4-[2-hydroxy-3-phenoxypropyl]piperazine]		0.28	10		4.6
OC(COc1ccc(Cl)cc1)CN1CCN(CCC(c2ccccc2)c2ccccc2)CC1 (centres unmarked) [Example 8, 1-[3,3-diphenylpropyl]-4-[2-hydroxy-3(4-chlorophenoxy)propyl]piperazine]		0.16	13		5
OC(COc1ccc(Cl)cc1)CN1CCN(CC(c2ccccc2)c2ccccc2)CC1 (centres unmarked) [Example 9, 1-[2,2-diphenylethyl]-4-[2-hydroxy-3-(4-chlorophenoxy)propyl]piperazine]		0.03	12		7.3
OC(COc1cccc(C(F)(F)F)c1)CN1CCN(CCCC(c2ccc(F)cc2)c2ccc(F)cc2)CC1 (centres unmarked) [Example 11, 1-[4,4-bis(4-fluorophenyl)butyl]-4-[2-hydroxy-3(3-trifluoromethylphenoxy)propyl]piperazine]		0.008	46		4.9
OC(COc1ccc(Cl)c(Cl)c1)CN1CCN(CCCC(c2ccc(F)cc2)c2ccc(F)cc2)CC1 (centres unmarked) [Example 12, 1-[4,4-bis(4-fluorophenyl)butyl]-4-[2-hydroxy-3-(3,4-dichlorophenoxy)propyl]piperazine]		0.016	45		4.7
OC(COc1ccccc1Cl)CN1CCN(CCCC(c2ccc(F)cc2)c2ccc(F)cc2)CC1 (centres unmarked) [Example 13, 1-[4,4-bis(4-fluorophenyl)butyl]-4-[2-hydroxy-3-(c-chlorophenoxy)propyl]piperazine]	6.9	0.01		39	
O=[N+]([O-])c1ccc(OCC(O)CN2CCN(CCCC(c3ccc(F)cc3)c3ccc(F)cc3)CC2)cc1 (centres unmarked) [Example 16, 1-[4,4-bis(4-fluorophenyl)butyl]-4-[2-hydroxy-3-(4-nitrophenoxy)propyl]piperazine]		0.011	38		5.5
N#Cc1ccccc1OCC(O)CN1CCN(CCCC(c2ccc(F)cc2)c2ccc(F)cc2)CC1 (centres unmarked) [Example 17, 1-[4,4-bis(4-fluorophenyl)butyl]-4-[2-hydroxy-3-(2-cyanophenoxy)propyl]piperazine]		0.01	27		16
OC(COc1ccc(F)cc1)CN1CCN(CCCC(c2ccccc2)c2ccccc2)CC1 (centres unmarked) [Example 22, 1-[4,4-diphenylbutyl]-4-[2-hydroxy-3-(4-fluorophenoxy)propyl]piperazine]		0.015	8.8		6
OC(COc1ccc(Cl)c(Cl)c1)CN1CCN(CCCC(c2ccccc2)c2ccccc2)CC1 (centres unmarked) [Example 23, 1-[4,4-diphenylbutyl]-4-[2-hydroxy-3-(3,4-dichlorophenoxy)propyl]piperazine]		0.022	41		8.6
Cc1ccc(C(CCCN2CCN(CC(O)COc3ccc(F)cc3)CC2)c2ccc(C)cc2)cc1 (centres unmarked) [Example 24, 1-[4,4-bis(4-methylphenyl)butyl]-4-[2-hydroxy-3-(4-fluorophenoxy)propyl]piperazine]		0.012	40		23
OC(COc1ccc(F)cc1)CN1CCN(CCCC(c2cccc(F)c2)c2cccc(F)c2)CC1 (centres unmarked) [Example 27, 1-[4,4-bis(3-fluorophenyl)butyl]-4-[2-hydroxy-3-(4-fluorophenoxy)propyl]piperazine]		0.022	29		14
OC(COc1ccc(F)cc1)CN1CCCN(CCCC(c2ccc(F)cc2)c2ccc(F)cc2)CC1 (centres unmarked) [Example 33, 1-[4,4-bis(4-fluorophenyl)butyl]-4-(2-hydroxy-3(4-fluorophenoxy)propyl]homopiperazine]		0.013	31		4.8
OC(CSc1ccc(F)cc1)CN1CCN(CCCC(c2ccc(F)cc2)c2ccc(F)cc2)CC1 (centres unmarked) [Example 34, 1-[4,4-bis(4-fluorophenyl)butyl]-4-[2-hydroxy-3-(4-fluoro-thiophenoxy)propyl]piperazine]		0.009	28		9
OC(CSc1ccccc1)CN1CCN(CCC(c2ccccc2)c2ccccc2)CC1 (centres unmarked) [Example 35]		0.159	14		8.7
Fc1ccc(C(c2ccc(F)cc2)N2CCN(C/C=C/c3ccccc3)CC2)cc1 [flunarizine, reference compound]			26.5		> 100
Cc1cccc(C)c1NC(=O)CN1CCN(CCCC(c2ccc(F)cc2)c2ccc(F)cc2)CC1 [lidoflazine, reference compound]		0.02	> 46		10
